Results as given in patent US20200215099A1, “NON-ANTICOAGULANT SULFATED OR SULFONATED POLYSACCHARIDES” (Baxalta Incorporated, priority 2012, published 2020).
≈ marks a conversion by molar mass, not a printed value. Entries after “also recorded” stand apart in the source; their conditions may differ. Where two headings read alike, the source gives them in different places. Each block holds one compound with its values, some of them ahead of it.

Assays:
[1] = tested on: FVIII-inhibited plasma; assay: Thrombin generation assay (CAT) in FVIII-inhibited plasma; assay type: biochemical, human; details: for EC50: half maximal thrombin peak
Method: The procoagulant activity of the sulfated polysaccharides was assessed by the Thrombin Generation Assay (TGA). The influence of each sulfated polysaccharide on thrombin generation was measured in duplicate via CAT in a Fluoroskan Ascent® reader (Thermo Labsystems, Helsinki, Finland; filters 390 nm excitation and 460 nm emission) following the slow cleavage of the fluorogenic substrate Z-Gly-GIy-Arg-AMC (Hemker H C. Pathophysiol Haemost Thromb (2003) 33(4):15). To each well of a 96 well microplate (Immulon 2HB, clear U-bottom; Thermo Electron) 80 μL of pre-warmed (37° C.) goat anti FVIII antibody treated human normal plasma pool was added. For triggering thrombin generation by tissue factor, 104 of PPP reagent containing a certain amount of recombinant human tissue factor (rTF) and phospholipid vesicles composed of phosphatidylserine, phosphatidylcholine and phosphatidylethanolamine (final concentration of 4 μM) (Thrombinoscope BV, Maastricht, The Netherlands) was added. For studying the procoagulant activity of sulfated polymers a final TF concentration of 1 pM was used to provide FVIII and TFPI sensitivity of the test system. Just prior to putting the plate into the pre-warmed (37° C.) reader, 10 µL of test or reference sample or calibrator compound was added. Thrombin generation was started by dispensing 204 of FluCa reagent (Thrombinoscope BV, Maastricht, The Netherlands) containing fluorogenic substrate and Hepes buffered CaCl2 (100 mM) into each well and fluorescence intensity was recorded at 37° C.
The parameters of the resulting thrombin generation curves were calculated using the Thrombinoscope™ software (Thrombinoscope BV, Maastricht, The Netherlands) and thrombin calibrator to correct for inner filter and substrate consumption effects (Hemker H C, Pathophysiol Haemost Thromb (2003) 33(4):15). With the thrombin calibrator as a reference, the molar concentration of thrombin in the test wells was calculated by the software. The thrombin amounts at the peak and peak times of each thrombin generation curve (peak thrombin, nM) were plotted against sulfated polysaccharide concentrations resulting in the procoagulant profile of these compounds. The thrombin generation assay results are illustrated in the figures appended hereto. From these plots half maximal effective concentrations (EC50) values are determined using a sigmoidal curve fit. The EC50 represents the concentration at which the half maximal thrombin peak is reached.

[2] = tested on: normal human plasma; assay: Activated partial thromboplastin time assay (aPTT); assay type: biochemical; details: for Ratio aPTT/CAT: 50% increase clotting time / CAT EC50; for 50% Increase Clotting Time: concentration where clotting time is 50% increased over normal plasma control; for anticoagulant activity (in words): aPTT compared with procoagulant CAT concentration
Method: The aPTT assay was performed to study anticoagulant activities of NASP. In brief, 50 μL of thawed normal human plasma pool (George King Biomedical, Overland Park, Kans.) was mixed with 5 μL of NASP sample (0-60 μg/mL final plasma concentration). NASPs were diluted in imidazole buffer (3.4 g/L imidazole; 5.85 g/L NaCl, pH 7.4) containing 1% albumin (Baxter, Austria). After addition of 50 μL aPTT reagent (STA APTT, Roche) the samples were incubated for 4 min at 37° C. Clotting was initiated by 50 μL of 25 mM CaCl2 solution (Baxter, Austria) and recorded for up to 5 min. All pipetting steps and clotting time measurements were carried out with an ACL Pro Elite (Instrumentation Laboratory, Bedford, Mass.) instrument. Samples were run in duplicate.
For data analysis, clotting time is plotted against the NASP concentration. Concentrations where the clotting time is 50% increased over the normal plasma control are determined using a linear curve fit.

[3] = target: T1, full-length TFPI (Homo sapiens, UniProt P10646); assay: Dilute prothrombin time assay with added TFPI (TFPI-dPT); assay type: biochemical; details: for EC50 TFPI-dPT: normal human plasma with rec. FL-TFPI; for reversal of the effect of rec. FL-TFPI (in words): normal human plasma
T1 construct: 0.5 μg/mL full-length TFPI (aa 1-276, constitutively produced by SKHep1); made in house; host or cells: SKHep1
T1 sequence (P10646 29-304): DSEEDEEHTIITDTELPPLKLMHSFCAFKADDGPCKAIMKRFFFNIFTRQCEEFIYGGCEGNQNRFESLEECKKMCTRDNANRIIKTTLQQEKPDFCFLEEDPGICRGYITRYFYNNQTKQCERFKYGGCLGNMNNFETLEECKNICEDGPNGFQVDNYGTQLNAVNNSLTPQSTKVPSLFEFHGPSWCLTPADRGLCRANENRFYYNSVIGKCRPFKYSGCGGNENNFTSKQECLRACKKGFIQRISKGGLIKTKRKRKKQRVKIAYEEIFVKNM
Method: A dilute prothrombin time assay with added TFPI (TFPI-dPT) was used to evaluate the TFPI-inhibiting effect of the different NASPs. Pooled normal human plasma (George King Biomedical, Overland Park, Kans.) was pre-incubated with 0.5 μg/mL full-length TFPI (aa 1-276, constitutively produced by SKHep1) and the respective NASP (0-5 μg/mL) for 15 min at RT. TF reagent TriniClot PT Excel S (Trinity Biotech, Wicklow, Ireland), diluted in Hepes-buffered saline 1:200 with 0.5% BSA was added to the plasma samples on an ACL Pro Elite hemostasis analyzer (Instrumentation Laboratory, Bedford, Mass.). Clotting was initiated with 25 mM CaCl2). The volume ratio of plasma:TF:CaCl2 was 1:1:1.
For data analysis, TFPI-dPT is plotted against the log concentration. Half maximal effective concentrations (EC50) values are determined using a sigmoidal curve fit.

[4] = tested on: FVIII-inhibited human whole blood; assay: Rotation thromboelastometry (ROTEM); details: ROTEM, 0.044 pM TF
Method: NASPs (0.4-11 μg/mL) were studied in fresh citrated human whole blood by rotation thromboelastometry (ROTEM), an assay that allows continuous visco-elastic assessment of whole blood clot formation and firmness. Blood was incubated with anti-human FVIII plasma raised in goat (Baxter Bioscience, Austria) at 50 BU/mL to simulate hemophilic conditions. Clotting was triggered with 0.044 pM tissue factor (TF) (PRP reagent, Thrombinoscope BV) in the presence of 40 μg/mL CTI (Haematologic Technologies Inc., Essex Junction, Vt., USA). Then 300 μL of the pre-warmed (37° C.) FVIII-inhibited blood was recalcified with 20 μL of a 0.2 M CaCl2 solution. Clot formation was monitored using a ROTEM instrument (Pentapharm Munich, Germany) at 37° C. The final assay concentration of rTF was 44 fM. The ROTEM recording was started immediately and measured for at least 120 min. Each blood sample was analyzed in two independent measurements.
The thromboelastographic parameters of clotting time (CT), clot formation time (CFT) and maximum clot firmness (MCF) were recorded in accordance with the manufacturer's instructions. The first derivative of the thromboelastogram data is plotted to obtain a graph of velocity (mm/s) against time (s). From this graph, the maximum velocity (maxV) and the time at which the maximum velocity is reached (maxV-t) are also determined.

[5] = tested on: contact pathway; assay: CAT in normal plasma with and without CTI; assay type: biochemical; details: for concentration activating the contact pathway: normal plasma, 1 pM hTF, 4 μM PL, ±41 μg/mL CTI

Compound: 6-carboxyicodextrin [reference compound]
- procoagulant activity (in words) [1]: not procoagulant

- EC50 ([1]; 1 pM hTF, 4 μM PL): 13.5 µg/mL (≈ 26.8 µM)
Compound: OC[C@H]1O[C@@](CO)(O[C@H]2O[C@H](CO)[C@@H](O)[C@H](O)[C@H]2O)[C@@H](O[C@H]2O[C@H](CO)[C@@H](O)[C@H](O)[C@H]2O)[C@@H]1O [melezitose]

- EC50 ([1]; 1 pM hTF, 4 μM PL): 7.4 µg/mL (≈ 14.7 µM)
Compound: OC[C@H]1O[C@H](OC[C@H]2O[C@H](O[C@]3(CO)O[C@H](CO)[C@@H](O)[C@@H]3O)[C@H](O)[C@@H](O)[C@@H]2O)[C@H](O)[C@@H](O)[C@H]1O [raffinose]

- EC50 ([1]; 1 pM hTF, 4 μM PL): 1.9 µg/mL
Compound: Cellopentaose
- procoagulant activity (in words) [1]: substantial procoagulant activity

- EC50 ([1]; 1 pM hTF, 4 μM PL): 4.8 µg/mL
Compound: Cellotetraose

- EC50 ([1]; 1 pM hTF, 4 μM PL): 30.9 µg/mL
Compound: Cellotriose

- EC50 ([1]; 1 pM hTF, 4 μM PL): 0.3 µg/mL
Compound: Fucoidan [Fucoidan (Control), reference compound]
- Ratio aPTT/CAT [2]: 23.3
- 50% Increase Clotting Time [2]: 7.0 µg/mL

- EC50 ([1]; 1 pM hTF, 4 μM PL): about 2 μg/mL
- EC50 ([1]; 1 pM hTF, 4 μM PL, listed as maltopentose): 2.1 µg/mL
Compound: Maltopentaose
- procoagulant activity (in words) [1]: substantial procoagulant activity

- EC50 ([1]; 1 pM hTF, 4 μM PL): 5.0 µg/mL
Compound: Maltotetraose
- procoagulant activity (in words) [1]: substantial procoagulant activity

- EC50 ([1]; 1 pM hTF, 4 μM PL): 20.6 µg/mL
Compound: Maltotriose

Compound: icodextrin [unsulfated icodextrin, reference compound]
- procoagulant activity (in words) [1]: not procoagulant

- EC50 ([1]; 1 pM hTF, 4 μM PL): 2.3 µg/mL
Compound: stachyose
- procoagulant activity (in words) [1]: substantial procoagulant activity

- EC50 ([1]; 1 pM hTF, 4 μM PL, listed as sulfated 6-carboxyicodextrin (21.6 kDa, 10.6% S)): 0.04 µg/mL
- EC50 TFPI-dPT [3]: 0.26 µg/mL
Compound: sulfated 6-carboxy-icodextrin [6-carboxy-Icodextrin (unfractionated, batch 1)]
- Ratio aPTT/CAT [2]: 80.0
- anticoagulant activity (in words) [2]: non-anticoagulant at its optimal procoagulant concentration
- 50% Increase Clotting Time [2]: 3.2 µg/mL
- procoagulant activity (in words) ([1]; listed as sulfated 6-carboxyicodextrin (21.6 kDa, 10.6% S)): procoagulant at very low concentrations
- reversal of the effect of rec. FL-TFPI (in words) ([3]; listed as sulfated 6-carboxy-icodextrin (21.6 kDa, 10.6% S)): reverses the effect of rec. FL-TFPI in plasma

- EC50 ([1]; 1 pM hTF, 4 μM PL, listed as sulfated 6-carboxyicodextrin (35 kDa, 10.1% S)): 0.07 µg/mL
Compound: sulfated 6-carboxy-icodextrin [6-carboxy-Icodextrin (unfractionated, batch 2)]
- Ratio aPTT/CAT [2]: 57.0
- 50% Increase Clotting Time [2]: 4.0 µg/mL
- procoagulant activity (in words) ([1]; listed as sulfated 6-carboxyicodextrin (35 kDa, 10.1% S)): procoagulant at very low concentrations
- restoration of coagulation (in words) ([4]; listed as sulfated 6-carboxy-icodextrin (35 kDa; 10.1% S)): restores coagulation in human FVIII-inhibited blood

- EC50 ([1]; 1 pM hTF, 4 μM PL): 2.4 µg/mL
- activation of the contact pathway (in words) [5]: No activation of the contact pathway
- concentration activating the contact pathway [5]: > 33000 ng/mL
- EC50 TFPI-dPT [3]: 0.15 µg/mL
Compound: sulfated maltopentaose [Maltopentaose (Baxter)]
- Ratio aPTT/CAT [2]: 1.4
- anticoagulant activity (in words) [2]: become anticoagulant within their procoagulant window
- 50% Increase Clotting Time [2]: 3.3 µg/mL
- procoagulant activity (in words) [1]: good procoagulant activity
- restoration of coagulation (in words) [4]: restore coagulation parameters of FVIII-inhibited whole blood
- restoration of coagulation (in words) ([4]; listed as sulfated maltopentose (15% S)): restores coagulation to normal in FVIII-inhibited blood
- reversal of the effect of rec. FL-TFPI (in words) ([3]; listed as sulfated maltopentaose (15% S)): reverses the effect of rec. FL-TFPI in plasma; also recorded: reverses the effect of recombinant Full Length-Tissue Factor Pathway Inhibitor

- EC50 ([1]; 1 pM hTF, 4 μM PL): 0.1 µg/mL
Compound: sulfated xylan [sulfated xylan (14.7% S, 22 kD)]
- procoagulant activity (in words) [1]: procoagulant at low concentrations
- procoagulant at (concentration) ([1]; 37° C., 1 pM hTF, 4 μM PL): about 0.01 μg/mL
- procoagulant activity (in words) ([1]; listed as Sulfated xylan): good procoagulant activity in CAT assays at very low concentrations

- EC50 ([1]; 1 pM hTF, 4 μM PL): 1.8 µg/mL
- EC50 ([1]; 1 pM hTF, 4 μM PL, listed as sulfated β-cyclodextrin): 0.7 µg/mL
- EC50 ([1]; 1 pM hTF, 4 μM PL, listed as β-cyclodextrin): about 2 μg/mL
- activation of the contact pathway (in words) [5]: No activation of the contact pathway
- concentration activating the contact pathway [5]: > 33000 ng/mL
- EC50 TFPI-dPT [3]: 0.08 µg/mL
Compound: sulfated β-cyclodextrin [β-Cyclodextrin (Sigma)]
- Ratio aPTT/CAT [2]: 5.1
- anticoagulant activity (in words) [2]: become anticoagulant within their procoagulant window
- 50% Increase Clotting Time [2]: 3.6 µg/mL
- procoagulant activity (in words) ([1]; listed as sulfated β-cyclodextrin): good procoagulant activity
- procoagulant activity (in words) ([1]; listed as β-cyclodextrin): substantial procoagulant activity
- restoration of coagulation (in words) [4]: restore coagulation parameters of FVIII-inhibited whole blood
- restoration of coagulation (in words) ([4]; listed as sulfated β-cyclodextrin (18.9% S)): restores coagulation to normal in FVIII-inhibited blood
- reversal of the effect of rec. FL-TFPI (in words) [3]: reverses the effect of rec. FL-TFPI in plasma

- EC50 ([1]; 1 pM hTF, 4 μM PL): 4.8 µg/mL
Compound: xylohexaose

Compound: α-cyclodextrin
- procoagulant activity (in words) [1]: substantial procoagulant activity
